Patent US6727237B2, “Inhibitors of bacterial NAD synthetase” (priority 1998, dated 2004)
Values after ≈ are worked out from the molar mass of the structure shown. Values joined by “and” are separate entries in the source; they are usually repeats but may differ in a detail not shown here. Equal entries are not always repeated.

Legend:
[1] = test system: Staphylococcus epidermitis; assay: Dose response of bacterial growth inhibition, MIC85; conditions: for MIC85: minimum inhibitory concentration to achieve 85% inhibition, S. epidermitis; for MIC: Staphylococcus, read-out: MIC85
[2] = test system: Staphylococcus epidermitis; assay: Bacterial growth inhibition screen in LB media (absorbance 595 nm), percent inhibition; conditions: for % Inhibition: S. epidermitis; for inhibition of growth at 10 µM / inhibition of growth at 100 µM: Staphylococcus, read-out: % Inhibition, S. epidermitis
[3] = target: T1, bacterial NAD synthetase enzyme (Bacillus subtilis, UniProt P08164); assay: biochemical; format: biochemical
T1 sequence (P08164 2-272 limits assumed): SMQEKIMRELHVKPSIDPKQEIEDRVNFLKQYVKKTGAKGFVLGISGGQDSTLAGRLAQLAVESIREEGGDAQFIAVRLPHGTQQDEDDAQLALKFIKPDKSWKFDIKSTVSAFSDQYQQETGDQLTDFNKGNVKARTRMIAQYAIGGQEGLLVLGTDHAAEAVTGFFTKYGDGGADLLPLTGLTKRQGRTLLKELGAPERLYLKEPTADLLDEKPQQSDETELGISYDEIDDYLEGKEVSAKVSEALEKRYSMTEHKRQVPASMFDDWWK

[4] = compound at 0.2 mM (Table 312A)

SMILES	MIC85 [1]	% Inhibition ([2]; concentration screened 10 uM)	also measured
COC(=O)c1ccc[n+](CCCCCCCn2ccc3cc([N+](=O)[O-])ccc32)c1 [Compound 12]	30 µM	99.22% and 95.73%	% Inhibition ([3]; compound at 0.1 mM (Table 314)): 62.22%
COC(=O)c1ccc[n+](CCCCCCCCn2ccc3cc([N+](=O)[O-])ccc32)c1 [Compound 13]			MIC [1]: 30 µM; inhibition of growth at 10 µM ([2]; concentration screened 10 uM): 98.5%; IC50 [3]: 50 µM; inhibition at 200 µM [3]: 80.8%
COC(=O)c1ccc[n+](CCCCCCCCCn2ccc3cc([N+](=O)[O-])ccc32)c1 [Compound 14]	10 µM	98.58% and 96.19%	% Inhibition [3, 4]: 78.85%
COC(=O)c1ccc2c(ccn2CCCCCCCCC[n+]2cc(C(=O)OC)cc3ccccc32)c1 [Compound 174]			MIC [1]: 10 µM; inhibition of growth at 10 µM ([2]; concentration screened 10 uM): 98.7%; IC50 [3]: 40 µM
COC(=O)c1cc2ccccc2n1CCCCCCCCC[n+]1ccccc1 [Compound 182]			MIC [1]: 10 µM; inhibition of growth at 100 µM ([2]; concentration screened 100 uM): 97.7%; IC50 [3]: 60 µM; inhibition at 100 µM [3]: 95.4%
COC(=O)c1ccc[n+](CCCCCCCCCn2c(C(=O)OC)cc3ccccc32)c1 [Compound 190]			MIC [1]: 3 µM; inhibition of growth at 100 µM ([2]; concentration screened 100 uM): 97.7%; IC50 [3]: 50 µM
COC(=O)c1ccc2ccn(CCCCCCC[n+]3ccccc3)c2c1 [Compound 213]			MIC [1]: 10 µM; inhibition of growth at 10 µM ([2]; concentration screened 10 uM): 97.4%; IC50 [3]: 65 µM; inhibition at 200 µM [3]: 90.7%
COC(=O)c1ccc2ccn(CCCCCCCCC[n+]3ccccc3)c2c1 [Compound 214]			MIC [1]: 10 µM; inhibition of growth at 100 µM ([2]; concentration screened 100 uM): 98.1%; IC50 [3]: 30 µM; inhibition at 100 µM [3]: 82.8%
COC(=O)c1ccc2ccn(CCCCCCCCC[n+]3cccc(C(=O)OC)c3)c2c1 [Compound 222]	30 µM	98.50%	% Inhibition [3, 4]: 52.98%
COC(=O)c1cc2cc(OCc3ccccc3)ccc2n1CCC[n+]1ccccc1 [Compound 227]	30 µM	96.46%	% Inhibition [3, 4]: 91.19%
COC(=O)c1cc2cc(OCc3ccccc3)ccc2n1CCCCC[n+]1ccccc1 [Compound 228]			MIC [1]: 10 µM; inhibition of growth at 100 µM ([2]; concentration screened 100 uM): 96.8%; IC50 [3]: 60 µM; inhibition at 100 µM [3]: 95.1%
COC(=O)c1cc2cc(OCc3ccccc3)ccc2n1CCCCCCC[n+]1ccccc1 [Compound 229]			MIC [1]: 3 µM; inhibition of growth at 100 µM ([2]; concentration screened 100 uM): 98%; IC50 [3]: 25 µM; inhibition at 100 µM [3]: 99.3%
COC(=O)c1cc2cc(OC)ccc2n1CCCCCCCCC[n+]1ccccc1 [Compound 246]	30 µM	90.26%	% Inhibition [3, 4]: 92.19%
COC(=O)C=Cc1cn(CCCCCCC[n+]2ccccc2)c2ccccc12 [Compound 261]	30 µM	92.51%	
FC(F)(F)c1ccc2cc(CCC[n+]3ccccc3)[nH]c2c1 [Compound 288]	30 µM	99.65%	% Inhibition ([3]; compound at 0.1 mM (Table 314)): 42.38%
FC(F)(F)c1ccc2cc(CCCCCC[n+]3ccccc3)[nH]c2c1 [Compound 291]	30 µM		% Inhibition ([2]; concentration screened 100 uM): 100.00%; % Inhibition [3, 4]: 71.94%
Cc1ccc2[nH]c(CCCC[n+]3ccccc3)cc2c1 [Compound 295]	10 µM	94.48%	% Inhibition ([3]; compound at 0.1 mM (Table 314)): 25.05%
Cc1ccc2[nH]c(CCCCC[n+]3ccccc3)cc2c1 [Compound 296]	30 µM	87.47%	% Inhibition [3, 4]: 16.79%
Cc1ccc2[nH]c(CCCCCC[n+]3ccccc3)cc2c1 [Compound 297]	30 µM		% Inhibition ([2]; concentration screened 100 uM): 100.00%; % Inhibition ([3]; compound at 0.1 mM (Table 314)): 50.83%
CCCCc1ccc2[nH]c(CCCCCC[n+]3ccccc3)cc2c1 [Compound 315]			MIC [1]: 30 µM; inhibition of growth at 100 µM ([2]; concentration screened 100 uM): 100%; IC50 [3]: 100 µM; inhibition at 100 µM [3]: 77.2%
FC(F)(F)c1ccc2[nH]c(CCCCC[n+]3ccccc3)cc2c1 [Compound 362]	30 µM		% Inhibition ([2]; concentration screened 100 uM): 100.00%; % Inhibition ([3]; compound at 0.1 mM (Table 314)): 8.31%
FC(F)(F)c1ccc2[nH]c(CCCCCC[n+]3ccccc3)cc2c1 [Compound 363]	30 µM		% Inhibition ([2]; concentration screened 100 uM): 100.00%; % Inhibition [3, 4]: 75.01%
COc1ccc2[nH]c(CCC[n+]3ccccc3)cc2c1 [Compound 372]	30 µM	67.34%	
COc1ccc2[nH]c(CCCCC[n+]3ccccc3)cc2c1 [Compound 374]	30 µM		% Inhibition ([2]; concentration screened 100 uM): 100.00%; % Inhibition ([3]; compound at 0.1 mM (Table 314)): 31.84%
COc1ccc2[nH]c(CCCCCC[n+]3ccccc3)cc2c1 [Compound 375]	30 µM		% Inhibition ([2]; concentration screened 100 uM): 100.00%; % Inhibition ([3]; compound at 0.1 mM (Table 314)): 60.14%
c1ccc2c[n+](CCCCCc3cc4ccccc4[nH]3)ccc2c1 [Compound 500]	30 µM		% Inhibition ([2]; concentration screened 100 uM): 99.14%; % Inhibition ([3]; compound at 0.1 mM (Table 314)): 18.25%

SMILES	MIC85 [1]	% Inhibition ([2]; concentration screened 10 uM)	also measured
Cc1ccc2[nH]c(CCCCC[n+]3ccc4ccccc4c3)cc2c1 [Compound 512]	30 µM		% Inhibition ([2]; concentration screened 100 uM): 99.71%; % Inhibition [3, 4]: 17.50%
Fc1cc(F)c2[nH]c(CCCCC[n+]3ccc4ccccc4c3)cc2c1 [Compound 518]	30 µM		% Inhibition ([2]; concentration screened 100 uM): 100.00%; % Inhibition ([3]; compound at 0.1 mM (Table 314)): 30.39%
c1ccc(C(c2ccccc2)(c2ccccc2)c2ccc3[nH]c(CCC[n+]4ccc5ccccc5c4)cc3c2)cc1 [Compound 552]	30 µM	50.00%	% Inhibition ([3]; compound at 0.1 mM (Table 314)): 15.24%
c1ccc(C(c2ccccc2)(c2ccccc2)c2ccc3[nH]c(CCCC[n+]4ccc5ccccc5c4)cc3c2)cc1 [Compound 553]	10 µM	94.92%	% Inhibition ([3]; compound at 0.1 mM (Table 314)): 49.49%
COc1ccc2c(ccn2CCCCCCCOC(=O)Cc2ccc([N+](C)(C)C)cc2)c1 [Compound 743]	10 µM	97.67%	% Inhibition ([3]; compound at 0.1 mM (Table 314)): 94.10%
COc1ccc2c(ccn2CCCCCCCCOC(=O)Cc2ccc([N+](C)(C)C)cc2)c1 [Compound 744]	30 µM	97.74%	% Inhibition [3, 4]: 95.85%
COc1ccc2c(ccn2CCCCCCCCOC(=O)c2cccc([N+](C)(C)C)c2)c1 [Compound 804]	30 µM	97.29%	
C[N+](C)(C)c1cccc(C(=O)OCCCCCCn2ccc3cc(OCc4ccccc4)ccc32)c1 [Compound 807]	10 µM	97.22%	
C[N+](C)(C)c1cccc(C(=O)OCCCCCCCn2ccc3cc(OCc4ccccc4)ccc32)c1 [Compound 808]	30 µM	98.06%	
C[N+](C)(C)c1cccc(C(=O)OCCCCCCCCn2ccc3cc(OCc4ccccc4)ccc32)c1 [Compound 809]	10 µM	99.81%	
COc1ccc2c(ccn2CCCCCOC(=O)c2cc3ccccc3[n+](C)c2)c1 [Compound 821]	30 µM	95.02%	
COc1ccc2c(ccn2CCCCCCCOC(=O)c2cc3ccccc3[n+](C)c2)c1 [Compound 823]	10 µM	97.03%	
COc1ccc2c(ccn2CCCCCCCCOC(=O)c2cc3ccccc3[n+](C)c2)c1 [Compound 824]	3.7 µM	97.67%	
C[n+]1cc(C(=O)OCCCCCn2ccc3cc(OCc4ccccc4)ccc32)cc2ccccc21 [Compound 826]	3.7 µM	92.57%	
C[n+]1cc(C(=O)OCCCCCCn2ccc3cc(OCc4ccccc4)ccc32)cc2ccccc21 [Compound 827]	3.7 µM	95.86%	
O=C(OCCCCCCCn1ccc2cc([N+](=O)[O-])ccc21)c1cnc2ccccc2c1 [Compound 833]	10 µM (≈ 4.31 µg/mL)	98.00%	
O=C(OCCCCCCCCn1ccc2cc([N+](=O)[O-])ccc21)c1cnc2ccccc2c1 [Compound 834]	3.7 µM (≈ 1.65 µg/mL)	98.13%	
O=C(OCCCCCCCCCn1ccc2cc([N+](=O)[O-])ccc21)c1cnc2ccccc2c1 [Compound 835]	3.7 µM (≈ 1.7 µg/mL)	99.03%	
CN(C)c1cccc(C(=O)OCCCCCCCn2ccc3cc([N+](=O)[O-])ccc32)c1 [Compound 839]	30 µM (≈ 12.7 µg/mL)	99.35%	
CN(C)c1cccc(C(=O)OCCCCCCCCn2ccc3cc([N+](=O)[O-])ccc32)c1 [Compound 840]	10 µM (≈ 4.38 µg/mL)	98.77%	
CN(C)c1cccc(C(=O)OCCCCCCCCCn2ccc3cc([N+](=O)[O-])ccc32)c1 [Compound 841]	10 µM (≈ 4.52 µg/mL)	98.90%	
CN(C)c1ccc(CC(=O)OCCCCCCCn2ccc3cc([N+](=O)[O-])ccc32)cc1 [Compound 851]	30 µM (≈ 13.1 µg/mL)	98.90%	
CN(C)c1ccc(CC(=O)OCCCCCCCCn2ccc3cc([N+](=O)[O-])ccc32)cc1 [Compound 852]	30 µM (≈ 13.5 µg/mL)	98.58%	
O=[N+]([O-])c1ccc2c(ccn2CCCCCCO)c1 [Compound 862, 6-[N-(5-nitroindolyl)]hexan-1-ol]		48.29%	% Inhibition [3, 4]: 9.05%
C[n+]1cccc(C(=O)OCCCCCCn2ccc3cc([N+](=O)[O-])ccc32)c1 [Compound 865]		50.42% and 48.55%	% Inhibition ([2]; concentration screened 100 uM): 94.40%; % Inhibition [3, 4]: 46.43%
